In paper PMC5417072 (Anticancer research, 2016) one finds IC50 data, which are given here for one compound.

SMILES strings stand for the structures. pIC50: −log10 of the molar value.

The experiment has as its target SIRT2 (sirtuin-2) (Homo sapiens, UniProt Q8IXJ6). The experiment in a line: in vitro enzymatic assay. The experiment is classed as biochemical.

SIRT2 (sirtuin-2), sequence (Q8IXJ6 2-389): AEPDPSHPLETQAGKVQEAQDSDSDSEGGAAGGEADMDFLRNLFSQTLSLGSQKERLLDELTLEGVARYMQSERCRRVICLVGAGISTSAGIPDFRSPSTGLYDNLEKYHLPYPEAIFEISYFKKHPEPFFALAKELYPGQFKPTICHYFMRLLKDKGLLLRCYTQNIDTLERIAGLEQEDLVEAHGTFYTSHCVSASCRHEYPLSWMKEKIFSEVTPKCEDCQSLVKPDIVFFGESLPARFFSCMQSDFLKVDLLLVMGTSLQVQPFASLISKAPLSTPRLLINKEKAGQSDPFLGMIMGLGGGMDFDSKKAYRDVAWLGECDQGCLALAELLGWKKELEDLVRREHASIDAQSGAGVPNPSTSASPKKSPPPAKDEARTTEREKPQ

One may read the pIC50 as −log10 of the IC50, conventionally taken in molar units. High values mean a low IC50, low ones a high IC50. Consider `COC(=O)[C@H](CCC(=O)Nc1cccc2c1ccn2Cc1cccc(C(N)=O)c1)NC(=O)OCc1ccccc1` [compound 6, (S)-Methyl 2-(((benzyloxy)carbonyl)amino)-5-((1-(3-carbamo-ylbenzyl)-1H-indol-4-yl)amino)-5-oxopentanoate], for which the negative-log IC50 (pIC50) is 4.48.
